In patent US20250136576A1, “Heterocyclic Compounds and Uses Thereof” (ACEA Therapeutics, Inc., priority 2021, published 2025):

The molecules below were run on KM12-luc cells (assay: Cell proliferation and growth inhibition assay (CCK-8) in KM12-luc). Conditions: KM12-Luc, 72 h, KM12-luc cells, treated with test compounds for 72 hrs, CCK-8 viability; read-out: NTRK IC50 in KM12-luc.
Format: cell-based
Outline: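 IC50 values were fitted by sigmoidal dose-response non-linear regression of CCK-8 OD450 absorbance after 1-4 hrs with reagent. Culture media were IMDM for MV-4-11, RPMI 1640 for H1975 and DMEM for KM12-luc, each with 10% FBS at 37 °C, 5% CO2.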

Structure (SMILES)	IC50
CC(=O)Nc1cc(Nc2ncc(C(F)(F)F)c(-c3cn(C)c4cc(F)c(F)cc34)n2)ccc1N(C)CCN(C)C [Compound 355, N-(5-((4-(5,6-difluoro-1-methyl-1H-indol-3-yl)-5-(trifluoromethyl)pyrimidin-2-yl)amino)-2-((2-(dimethylamino)ethyl)(methyl)amino)phenyl)acetamide]	70.4 nM
CC(=O)Nc1cc(Nc2ncc(C(F)(F)F)c(-c3cn(C)c4ccc(C)cc34)n2)ccc1N(C)CCN(C)C [Compound 356, N-(5-((4-(1,5-dimethyl-1H-indol-3-yl)-5-(trifluoromethyl)pyrimidin-2-yl)amino)-2-((2-(dimethylamino)ethyl)(methyl)amino)phenyl)acetamide]	327 nM
COc1ccc2c(c1)c(-c1nc(Nc3ccc(N(C)CCN(C)C)c(NC(C)=O)c3)ncc1C(F)(F)F)cn2C [Compound 357, N-(2-((2-(dimethylamino)ethyl)(methyl)amino)-5-((4-(5-methoxy-1-methyl-1H-indol-3-yl) 5-(trifluoromethyl)pyrimidin-2-yl)amino)phenyl)acetamide]	1080 nM
CC(=O)Nc1cc(Nc2ncc(C(F)(F)F)c(-c3c[nH]c4c(C)cccc34)n2)ccc1N(CCN(C)C)C(C)=O [Compound 363, N-(2-acetamido-4-((4-(7-methyl-1H-indol-3-yl)-5-(trifluoromethyl)pyrimidin-2-yl)amino)phenyl)-N-(2-(dimethylamino)ethyl)acetamide]	93.4 nM
Cc1cccc2c(-c3nc(Nc4ccc5c(c4)nc(C)n5CCN(C)C)ncc3C(F)(F)F)c[nH]c12 [Compound 364, 1-(2-(dimethylamino)ethyl)-2-methyl-N-(4-(7-methyl-1H-indol-3-yl)-5-(trifluoromethyl)pyrimidin-2-yl)-1H-benzo[d]imidazol-5-amine]	20.1 nM
Cc1cccc2c(-c3nc(Nc4ccc(N(C)CCN(C)C)c(N)c4)ncc3C(F)(F)F)cn(C)c12 [Compound 369, N^4-(4-(1,7-dimethyl-1H-indol-3-yl)-5-(trifluoromethyl)pyrimidin-2-yl)-N^1-(2-(dimethylamino)ethyl)-N^1-methylbenzene-1,2,4-triamine]	27.6 nM
CC(=O)Nc1cc(Nc2ncc(C(F)(F)F)c(-c3cn(C)c4c(C)cccc34)n2)ccc1N(CCN(C)C)C(C)=O [Compound 370, N-(2-acetamido-4-((4-(1,7-dimethyl-1H-indol-3-yl)-5-(trifluoromethyl)pyrimidin-2-yl)amino)phenyl)-N-(2-(dimethylamino)ethyl)acetamide]	77.1 nM
Cc1cccc2c(-c3nc(Nc4ccc5c(c4)nc(C)n5CCN(C)C)ncc3C(F)(F)F)cn(C)c12 [Compound 371, N-(4-(1,7-dimethyl-1H-indol-3-yl)-5-(trifluoromethyl)pyrimidin-2-yl)-1-(2-(dimethylamino)ethyl)-2-methyl-1H-benzo[d]imidazol-5-amine]	110 nM
CC(=O)Nc1cc(Nc2ncc(C(F)(F)F)c(-c3cn(C)c4c(C)cccc34)n2)ccc1OCCN(C)C [Compound 372, N-(5-((4-(1,7-dimethyl-1H-indol-3-yl)-5-(trifluoromethyl)pyrimidin-2-yl)amino)-2-(2-(dimethylamino)ethoxy)phenyl)acetamide]	30.2 nM
COc1cccc2c(-c3nc(Nc4ccc(N(CCN(C)C)C(C)=O)c(NC(C)=O)c4)ncc3C(F)(F)F)c[nH]c12 [Compound 379, N-(2-acetamido-4-((4-(7-methoxy-1H-indol-3-yl)-5-(trifluoromethyl)pyrimidin-2-yl)amino)phenyl)-N-(2-(dimethylamino)ethyl)acetamide]	149 nM
COc1cccc2c(-c3nc(Nc4ccc5c(c4)nc(C)n5CCN(C)C)ncc3C(F)(F)F)c[nH]c12 [Compound 380, 1-(2-(dimethylamino)ethyl)-N-(4-(7-methoxy-1H-indol-3-yl)-5-(trifluoromethyl)pyrimidin-2-yl)-2-methyl-1H-benzo[d]imidazol-5-amine]	50.5 nM
COc1cccc2c(-c3nc(Nc4ccc(N(C)CCN(C)C)c(N)c4)ncc3C(F)(F)F)cn(C)c12 [Compound 385, N^1-(2-(dimethylamino)ethyl)-N^4-(4-(7-methoxy-1-methyl-1H-indol-3-yl)-5-(trifluoromethyl)pyrimidin-2-yl)-N^1-methylbenzene-1,2,4-triamine]	45.3 nM
COc1cccc2c(-c3nc(Nc4ccc(N(CCN(C)C)C(C)=O)c(NC(C)=O)c4)ncc3C(F)(F)F)cn(C)c12 [Compound 386, N-(2-acetamido-4-((4-(7-methoxy-1-methyl-1H-indol-3-yl)-5-(trifluoromethyl)pyrimidin-2-yl)amino)phenyl)-N-(2-(dimethylamino)ethyl)acetamide]	43.9 nM
COc1cccc2c(-c3nc(Nc4ccc5c(c4)nc(C)n5CCN(C)C)ncc3C(F)(F)F)cn(C)c12 [Compound 387, 1-(2-(dimethylamino)ethyl)-N-(4-(7-methoxy-1-methyl-1H-indol-3-yl)-5-(trifluoromethyl)pyrimidin-2-yl)-2-methyl-1H-benzo[d]imidazol-5-amine]	114 nM
COc1cccc2c(-c3nc(Nc4ccc(OCCN(C)C)c(NC(C)=O)c4)ncc3C(F)(F)F)cn(C)c12 [Compound 388, N-(2-(2-(dimethylamino)ethoxy)-5-((4-(7-methoxy-1-methyl-1H-indol-3-yl)-5-(trifluoromethyl)pyrimidin-2-yl)amino)phenyl)acetamide]	44.8 nM
CCn1cc(-c2nc(Nc3ccc(N(C)CCN(C)C)c(NC(C)=O)c3)ncc2C(F)(F)F)c2cc(F)ccc21 [Compound 391, N-(2-((2-(dimethylamino)ethyl)(methyl)amino)-5-((4-(1-ethyl-5-fluoro-1H-indol-3-yl)-5-(trifluoromethyl)pyrimidin-2-yl)amino)phenyl)acetamide]	50 nM
CC(=O)Nc1cc(Nc2ncc(Cl)c(-c3c[nH]c4ccccc34)n2)ccc1NC(=O)CN(C)C [Compound 393, N-(2-acetamido-4-((5-chloro-4-(1H-indol-3-yl)pyrimidin-2-yl)amino)phenyl)-2-(dimethylamino)acetamide]	23.1 nM
CC(=O)Nc1cc(Nc2ncc(Cl)c(-c3c[nH]c4ccccc34)n2)ccc1NC(=O)CCN(C)C [Compound 394a, N-(2-acetamido-4-((5-chloro-4-(1H-indol-3-yl)pyrimidin-2-yl)amino)phenyl)-3-(dimethylamino)propanamide]	29.1 nM
Cc1nc2ccc(Nc3ncc(Cl)c(-c4c[nH]c5ccccc45)n3)cc2[nH]1 [Compound 394b, N-(5-chloro-4-(1H-indol-3-yl)pyrimidin-2-yl)-2-methyl-1H-benzo[d]imidazol-6-amine]	131 nM
CC(=O)Nc1cc(Nc2ncc(Cl)c(-c3cn(C)c4ccccc34)n2)ccc1N(C)CCN(C)C [Compound 395, N-(5-((5-chloro-4-(1-methyl-1H-indol-3-yl)pyrimidin-2-yl)amino)-2-((2-(dimethylamino)ethyl)(methyl)amino)phenyl)acetamide]	77.3 nM
CC(=O)Nc1cc(Nc2ncc(Cl)c(-c3cn(C)c4ccccc34)n2)cc(F)c1N(C)CCN(C)C [Compound 396, N-(5-((5-chloro-4-(1-methyl-1H-indol-3-yl)pyrimidin-2-yl)amino)-2-((2-(dimethylamino)ethyl)(methyl)amino)-3-fluorophenyl)acetamide]	80.3 nM
CCN(CCN(C)C)c1ccc(Nc2ncc(Cl)c(-c3cn(C)c4ccccc34)n2)cc1NC(C)=O [Compound 397, N-(5-((5-chloro-4-(1-methyl-1H-indol-3-yl)pyrimidin-2-yl)amino)-2-((2-(dimethylamino)ethyl)(ethyl)amino)phenyl)acetamide]	180 nM
CCN(CCN(C)C)c1c(F)cc(Nc2ncc(Cl)c(-c3cn(C)c4ccccc34)n2)cc1NC(C)=O [Compound 398, N-(5-((5-chloro-4-(1-methyl-1H-indol-3-yl)pyrimidin-2-yl)amino)-2-((2-(dimethylamino)ethyl)(ethyl)amino)-3-fluorophenyl)acetamide]	196 nM
Cc1nc2cc(Nc3ncc(Cl)c(-c4cn(C)c5ccccc45)n3)ccc2n1CCN(C)C [Compound 400b, N-(5-chloro-4-(1-methyl-1H-indol-3-yl)pyrimidin-2-yl)-1-(2-(dimethylamino)ethyl)-2-methyl-1H-benzo[d]imidazol-5-amine]	71.5 nM
CC(=O)Nc1cc(Nc2ncc(Cl)c(-c3cn(C)c4ccccc34)n2)cc(F)c1N1CCC(N(C)C)C1 (centres unmarked) [Compound 401, N-(5-((5-chloro-4-(1-methyl-1H-indol-3-yl)pyrimidin-2-yl)amino)-2-(3-(dimethylamino)pyrrolidin-1-yl)-3-fluorophenyl)acetamide]	49.5 nM
CC(=O)Nc1cc(Nc2ncc(Cl)c(-c3cn(C)c4ccccc34)n2)ccc1N(C)C(=O)CN(C)C [Compound 403, N-(2-acetamido-4-((5-chloro-4-(1-methyl-1H-indol-3-yl)pyrimidin-2-yl)amino)phenyl)-2-(dimethylamino)-N-methylacetamide]	46.5 nM
CC(=O)Nc1cc(Nc2ncc(Cl)c(-c3cn(C)c4ccccc34)n2)ccc1N(C)C(=O)CCN(C)C [Compound 404, N-(2-acetamido-4-((5-chloro-4-(1-methyl-1H-indol-3-yl)pyrimidin-2-yl)amino)phenyl)-3-(dimethylamino)-N-methylpropanamide]	26.5 nM
CCN(C(=O)CN(C)C)c1ccc(Nc2ncc(Cl)c(-c3cn(C)c4ccccc34)n2)cc1NC(C)=O [Compound 405, N-(2-acetamido-4-((5-chloro-4-(1-methyl-1H-indol-3-yl)pyrimidin-2-yl)amino)phenyl)-2-(dimethylamino)-N-ethylacetamide]	> 1000 nM
CCN(C(=O)CCN(C)C)c1ccc(Nc2ncc(Cl)c(-c3cn(C)c4ccccc34)n2)cc1NC(C)=O [Compound 406, N-(2-acetamido-4-((5-chloro-4-(1-methyl-1H-indol-3-yl)pyrimidin-2-yl)amino)phenyl)-3-(dimethylamino)-N-ethylpropanamid]	60.1 nM
